Laboratory results reported in patent US7355042B2, “Treatment of CNS disorders using CNS target modulators” (Hypnion, Inc., priority 2001, dated 2008).

What was measured:
[1] = system: male Wistar rats; assay: Sleep-wakefulness, locomotor activity and body temperature monitoring (SCORE-2000); type: in vivo, rat; settings: for Average Bout-Length / Duration / Maximum Bout Length / NREM Accum. / NREM Peak (%/hr) / Onset: 30 mg/kg PO at CT-18
[2] = molecular target: T1, H1 receptor from bovine cellular membranes (Bos taurus, UniProt P30546); assay: H1 binding assay, [3H]pyrilamine displacement; settings: for IC50: Table 6, Series 11, unit inferred
T1 construct: the H1 receptor was from bovine cellular membranes; from tissue
T1 sequence (P30546 whole entry): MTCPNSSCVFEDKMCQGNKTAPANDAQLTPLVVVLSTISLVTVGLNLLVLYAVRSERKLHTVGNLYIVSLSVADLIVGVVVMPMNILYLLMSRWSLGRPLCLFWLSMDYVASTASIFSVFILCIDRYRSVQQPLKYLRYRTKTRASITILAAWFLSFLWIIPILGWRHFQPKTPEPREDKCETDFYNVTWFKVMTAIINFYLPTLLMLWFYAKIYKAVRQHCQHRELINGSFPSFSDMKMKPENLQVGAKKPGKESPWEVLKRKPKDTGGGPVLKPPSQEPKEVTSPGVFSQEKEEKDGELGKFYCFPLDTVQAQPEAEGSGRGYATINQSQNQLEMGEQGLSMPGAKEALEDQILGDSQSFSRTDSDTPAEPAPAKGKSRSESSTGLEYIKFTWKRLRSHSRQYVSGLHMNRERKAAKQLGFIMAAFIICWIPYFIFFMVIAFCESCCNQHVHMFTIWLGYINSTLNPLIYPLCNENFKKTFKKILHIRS

[3] = molecular target: T2, human recombinant M3 muscarinic receptor expressed in CHO cells (Homo sapiens, UniProt P20309); assay: M3 binding assay (human recombinant)
T2 construct: expressed in transfected cells; host or cells: CHO cells
T2 sequence (P20309 whole entry): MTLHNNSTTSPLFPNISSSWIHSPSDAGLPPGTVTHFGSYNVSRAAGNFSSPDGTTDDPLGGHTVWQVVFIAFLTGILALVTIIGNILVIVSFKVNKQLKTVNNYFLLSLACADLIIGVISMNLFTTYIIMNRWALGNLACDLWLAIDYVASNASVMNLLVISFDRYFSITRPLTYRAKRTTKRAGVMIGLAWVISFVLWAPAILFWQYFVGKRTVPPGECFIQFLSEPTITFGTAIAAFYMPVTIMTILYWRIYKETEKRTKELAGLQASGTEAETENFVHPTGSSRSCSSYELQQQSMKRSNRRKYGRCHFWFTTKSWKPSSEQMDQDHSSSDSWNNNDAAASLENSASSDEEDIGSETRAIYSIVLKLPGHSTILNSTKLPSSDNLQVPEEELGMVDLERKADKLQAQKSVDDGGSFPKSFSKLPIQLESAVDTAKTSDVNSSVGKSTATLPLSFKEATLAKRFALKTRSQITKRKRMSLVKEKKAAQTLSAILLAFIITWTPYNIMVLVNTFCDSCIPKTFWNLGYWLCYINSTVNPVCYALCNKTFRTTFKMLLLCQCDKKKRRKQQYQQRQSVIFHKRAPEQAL

[4] = molecular target: T3, human recombinant M1 muscarinic receptor expressed in CHO cells (Homo sapiens, UniProt P11229); assay: M1 binding assay (human recombinant), [3H]-scopolamine N-methyl chloride; settings: Table 7; human recombinant; read-out: Receptor Binding Data (Ki nM) M1
T3 construct: expressed in transfected cells; host or cells: CHO cells
T3 sequence (P11229 1-460): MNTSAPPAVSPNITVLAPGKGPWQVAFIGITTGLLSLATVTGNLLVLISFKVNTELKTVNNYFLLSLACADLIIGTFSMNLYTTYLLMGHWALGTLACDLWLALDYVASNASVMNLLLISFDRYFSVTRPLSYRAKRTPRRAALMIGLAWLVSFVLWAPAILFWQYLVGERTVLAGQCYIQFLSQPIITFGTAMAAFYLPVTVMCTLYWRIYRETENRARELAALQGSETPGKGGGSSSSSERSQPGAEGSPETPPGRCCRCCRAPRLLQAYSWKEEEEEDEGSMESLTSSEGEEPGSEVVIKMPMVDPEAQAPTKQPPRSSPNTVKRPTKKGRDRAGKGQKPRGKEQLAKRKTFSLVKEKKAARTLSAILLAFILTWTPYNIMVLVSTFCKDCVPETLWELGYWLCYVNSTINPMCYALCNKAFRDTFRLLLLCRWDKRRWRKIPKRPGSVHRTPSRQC

[5] = 30 mg/kg and 10 mg/kg, intraperitoneal bolus at CT-18
[6] = intraperitoneal at CT-18, 11f 10 or 30 mg/kg, 6f and 15f 30 mg/kg

SMILES	IC50 [2]	Average Bout-Length [1]	Duration [1]	Maximum Bout Length [1]	NREM Accum. [1]	NREM Peak (%/hr) [1]	Onset [1]	cumulative effect on total sleep time (TST) during the initial 5 hours post-treatment, relative to baseline ([1]; 30 mg/kg IP versus Zolpidem 10 mg/kg)	sleep continuity, as assessed by sleep bout length [1, 5]	time post-treatment over which total sleep time was increased [1, 5]	total sleep time [1, 5]	REM sleep inhibition [1, 6]	rebound insomnia [1, 6]	Ki [3]	Ki ([2]; Receptor Binding Data (Ki nM) H1, Table 7)	Ki [4]
O=C(O)CCN1CCC(OC(c2ccccc2)c2ccccc2)CC1 [Compound 6a, 3-[4-(diphenylmethoxy)piperidin-1-yl]propanoic acid]		7.0 min	5 h	12.8 min	26.5 min	56.4 %/hr	65 min									
O=C(CCN1CCC(=C(c2ccccc2)c2ccccc2)CC1)OC1CCCC1 [Compound 11f, Cyclopentyl 3-[4-(diphenylmethylidene)piperidin-1-yl]propanoate]	1.07 µM							induced more TST than Zolpidem	increased sleep continuity	3 h	significantly increased total sleep time	did not, however, produce REM sleep inhibition or rebound insomnia	did not, however, produce REM sleep inhibition or rebound insomnia			
O=C(O)CN1CCC(C(c2ccccc2)c2ccccc2)CC1 [Compound 16a, [4-(Diphenylmethyl)piperidin-1-yl]ethanoic acid]		5.4 min	5 h	11.8 min	20.7 min	57.9 %/hr	180 min							> 10 µM	43.9 nM	> 10000 nM
Cl.O=C(O)CCCN1CCC(OC(c2ccccc2)c2ccccc2)CC1 [Compound 53a]		4.3 min	4 h	9.1 min	17.4 min	49.2 %/hr	30 min									

Now from value to compound, other results behind:

IC50 [2]	SMILES	Average Bout-Length [1]	Duration [1]	Maximum Bout Length [1]	NREM Accum. [1]	NREM Peak (%/hr) [1]	Onset [1]	cumulative effect on total sleep time (TST) during the initial 5 hours post-treatment, relative to baseline ([1]; 30 mg/kg IP versus Zolpidem 10 mg/kg)	sleep continuity, as assessed by sleep bout length [1, 5]	time post-treatment over which total sleep time was increased [1, 5]	total sleep time [1, 5]	REM sleep inhibition [1, 6]	rebound insomnia [1, 6]	Ki [3]	Ki ([2]; Receptor Binding Data (Ki nM) H1, Table 7)	Ki [4]
0.308 µM	O=C(O)CCN1CCC(=C(c2ccccc2)c2ccccc2)CC1 [Compound 11a]	11.2 min	6 h	18.7 min	41.2 min	67.3 %/hr	85 min									
0.378 µM	CC(C)OC(=O)CCN1CCC(=C(c2ccccc2)c2ccccc2)CC1 [Compound 11d, Isopropyl 3-[4-(diphenylmethylidene)piperidin-1-yl]propanoate]	11.0 min	6 h	20.1 min	55.5 min	58.5 %/hr	135 min									
0.718 µM	CC(C)COC(=O)CCN1CCC(=C(c2ccccc2)c2ccccc2)CC1 [Compound 11e, Isobutyl 3-[4-(diphenylmethylidene)piperidin-1-yl]propanoate]	8.3 min	6 h	19.1 min	49.6 min	59.6 %/hr	80 min									
